The test system of one assay is integrin α6. Conditions: cited from earlier work. An excerpt: We further translated the RWY peptide into an integrin α6-targeted PET probe and MRI probe that have been successfully applied for tumor imaging of the integrin α6 expression ([Feng GK et al., 2019]; [Xiao et al., 2019]; [Zhang Y et al., 2020]; [Gao et al., 2020]). Recently, our group improved the characteristics of the peptide by alanine scanning and obtained a novel integrin α6-targeting peptide […] (dubbed S5) which ...

Assay [1] concerns NALM6-luciferase tumor-bearing mice. Kind of assay: T1-weighted MR imaging of NALM6-luciferase tumor-bearing mice (CNS-L). Conditions: 0.03 mmol of Gd/kg, tail vein, 3.0 T, baseline and 5, 10, 15 min post-injection. It is filed as in vivo, NOD/SCID mice. The procedure: The human ALL cell lines including NALM6, Reh, Jurkat, and CCRF-CEM were purchased from the American Type Culture Collection (ATCC) and cultured in RPMI 1640 medium supplemented with 10% fetal bovine serum and 0.5% penicillin–streptomycin and incubated at 37 °C/5%CO2. To facilitate tumor monitoring, luminescent cells NALM6-luciferase were generated by stable transfection with luciferase. Female NOD/SCID mice (6 weeks old) were purchased from Vita River, Charles River Laboratories, China (Beijing, China). NOD/SCID mice were injected via the tail vein with 1 × 10^6 luciferased cells suspended in 150 µl of sterile phosphate-buffered saline (PBS). Bioluminescence imaging was applied to monitor the leukemic burden. All animal experiments were approved by the Institutional Animal Care and Use Committee (IACUC) at the Sun Yat-sen University Cancer Center (IACUC approval number L102012020070M), and the welfare and treatment of the laboratory animals were in accordance with the corresponding animal management regulations.
Bioluminescence confirmed CNS-L mice were used for MR and PET imaging studies in the next few days after the NIRF imaging. MR imaging was performed using a Philips Achieva 3.0 T system. Mice were anesthetized with 2,2,2-Tribromoethanol ([…]), fixed on the holder, and placed into the mouse-imaging coil. […]

Assay [2] concerns Human ITGA6 & ITGB4 Heterodimer Protein. Description: Microscale thermophoresis affinity of S5 peptides. It is filed as binding. Conditions: cyclic vs straight S5 peptide; preliminary experiments, Supplementary Figures S2A, S2B; MST, Monolith NT.115, protein 100 nM, peptide from 100 uM diluted 1:1, PBST, 80 % LED/excitation power, medium MST power. Here is the method:
The affinity of cyclic S5 peptide, straight S5 peptide, NOTA-S5 and Gd-S5 with Human ITGA6 & ITGB4 Heterodimer Protein (Manufactured by Sino Biological Catalog Number: CT069-H2508H) was determined by microscale thermophoresis (MST). Firstly, 0.05% PBST was prepared, 25ul of Tween 20 was added to 50ml of PBS and filtered through 0.22um filter paper. Then dilute the peptide: dissolve the above 4 peptides into 1mM storage solution concentration. Take 20 ul of peptide and mix with 80 ul of PBST and dilute to a working concentration of […]. Next dilute the dye: Take 2 µL of RED-tris-NTA II dye (Manufactured by NanoTemper Cat# MO-L018 5 µM) and mix with 98 µl of PBST to obtain 100 µL of dye (100 nM). Finally, 100 ul of Human ITGA6 & ITGB4 Heterodimer Protein (400 nM) was mixed with 100 ul of dye (100 nM) and incubated at room temperature for 30 min, at which time the protein concentration was 200 nM. 10 ul of peptide (200 uM) was added to the PCR tube, and 16 tubes were diluted 1:1 with PBST. Then take 3 ul of protein/dye mixture in the PCR tube, add 3 ul of […] concentrations of peptide and mix well. The concentration of protein was 100 nM and the concentration of peptide in the first tube was 100 uM. […] Kd was calculated by Kd fitting mode using MO.Affinity Analysis.
(MST reads how a fluorescent partner responds to local heating, with and without ligand.)

The next assay relates to NALM6 cells. Description: Immunofluorescence / confocal microscopy of S5 peptide in NALM6 cells. Format: cell-based, human. The procedure:
Approximately 1 × 10^6 NALM6 cells were seeded on cover slips in 24-well plates and incubated for 24 h. Subsequently, the 80 μM S5 peptide was added into the culture medium and incubated with cells for 4 h, while the blank control group was added to the same volume of RPMI 1640 medium. After that, cells of each group were washed with PBS five times, fixed with 4% paraformaldehyde for 15 min, permeabilized with 0.1% Triton X-100 (Sigma-Aldrich, Germany), and blocked with 1% BSA for 30 min. The cover slips were incubated with the anti-integrin α6 antibody (Abcam, ab181551) at 4°C overnight, followed by incubation with streptavidin-Cy3 (Thermo Fisher 434315, United States) and the goat anti-mouse Alexa Fluor 488 secondary antibody (Abcam, ab150113) for 1 h at room temperature in a dark chamber. Finally, cover slips were incubated with 1 μg/ml DAPI and mounted with slides with ProLong gold antifade (Invitrogen P26930, United States). Fluorescence images were visualized and captured under a confocal microscopy confocal laser-scanning system (Zeiss, LSM980, Germany) at 40× and 100× magnification. Co-localization was analyzed by ImageJ (http://rsbweb.nih.gov/ij/) and the co-localization finder plug-in.

Take CRWYDENAC [reference compound]: the “binding to integrin α6” value with integrin α6 (identified by phage display technology, ref Feng G et al., 2019) is given as “could bind specifically to integrin α6”.
For the molecule `O=C([O-])CN(CCN(CC(=O)[O-])CC(=O)O)CCN(CC(=O)[O-])CC(=O)O.[Gd+3]` [Gd-DTPA, gadolinium-diethylenetriamine pentaacetic acid], the MR enhancement signals result in assay [1] was “did not show obvious enhancement signals”.
For the molecule CRWYDANAC [S5], in assay [2], the “binding of cyclic and straight peptides compared” value was “equivalent”. In addition, the “cellular uptake of the S5 peptide” value in the assay with NALM6 cells (80 μM S5 peptide, 4 h, green fluorescence) was “entered the cytoplasm through cytocytosis after binding to the cell membrane”. The “cellular localization of the S5 peptide” value with NALM6 cells (80 μM S5 peptide, 4 h of co-culturing, fluorescence microscopy) is “enriched and localized at the nuclei of NALM6 cells”. In addition, in the assay with NALM6 cells (NALM6 cells, as summarised in Discussion), the “location of integrin α6 and the S5 peptide confirmed by confocal microscopy (Discussion)” value is on record as “dominating membrane location”. In the assay with integrin α6 (vs RWY, obtained by alanine scanning, ref Mei et al., 2020, Lin et al., 2021), the “specificity and affinity to integrin α6” value was “higher specificity and affinity”.

Source of the values: publication PMC8905628, “Integrin α6-Targeted Molecular Imaging of Central Nervous System Leukemia in Mice” (Frontiers in Bioengineering and Biotechnology, 2022).
